# Source: article PMC12402836, “Taste Profile and Relative Bioavailability of Tovorafenib Powder for Oral Suspension and Food Effect of the Tovorafenib Tablet in Healthy Participants” (Clinical Pharmacology in Drug Development, 2025)
# Like-named read-outs stand apart in the source and are kept apart here.
# How the values were obtained:
# [1] = Relative bioavailability and food-effect pharmacokinetics (Part 2, 3-period crossover); format: in vivo, human
# Experimental: In Part 2 of the study, 12 participants were randomized to 1 of 3 sequences (T[fast]S[fast]T[fed], S[fast]T[fed]T[fast], and T[fed]T[fast]S[fast]) (Figure S1B). In each treatment period, tovorafenib was administered on Day 1 as a tablet under fasted (T[fast]), as PfOS under fasted (S[fast]), or as a tablet after a high‐fat meal (T[fed]). Tovorafenib was administered in the morning after an overnight fast of 10 hours or more. For treatment groups T[fast] and S[fast], tovorafenib was given under fasted conditions (ie, no breakfast), while for the T[fed] group, it was administered 30 minutes after the start of a high‐fat meal. A total of 240 mL of water was administered with each tovorafenib tablet. For the PfOS, immediately after administration, the dosing vessel was rinsed with water, and participants were required to consume the rinse solution and additional water up to a total volume of 240 mL (including the dosing volume and volume used to rinse the dosing vessel). If needed, additional water in 50‐mL aliquots was provided and recorded but was not classed as a protocol deviation. Participants were required to fast for 4 hours or more after single‐dose administration of the tovorafenib tablet. The composition of the high‐fat meal consisted of 800‐1000 calories, of which approximately 54% of calories were from fat. To be eligible for dosing, participants were required to consume at least 90% of the meal provided. Intake of fluids was prohibited 1 hour before dosing until 1 hour after dosing, except for fluid consumed with breakfast before dosing and water for tovorafenib tablet intake. Blood samples were collected at regular intervals (see Blood Collection and Processing for PK Analysis in the Pharmacokinetic Assessments section for more details) for PK analysis from before dosing to 120 hours after dosing. […]
# Plasma concentrations of tovorafenib were determined by a validated liquid chromatography with tandem mass spectrometry–based method with a lower limit of quantification of 0.5 ng/mL. […]
# [2] = Safety assessments (adverse events, laboratory, vital signs, ECG); format: in vivo
# Source text: Safety evaluations included analysis of AEs, laboratory variables (hematology, clinical chemistry, and urinalysis), vital signs, electrocardiogram, and a physical examination. AEs were coded using the Medical Dictionary for Regulatory Activities Version 24.0. […] Treatment‐emergent AEs (TEAEs) were summarized by frequency, severity, and relatedness to the study drug. TEAE frequency (the number of TEAEs and the number of participants experiencing a TEAE) was tabulated by system organ class and preferred term. In the per‐participant analyses, a participant having the same event more than once was counted only once.
# [3] = set-up: method as in PMID 37219686; conditions: cited from earlier work
# [4] = set-up: method as in PMID 38967715, PMID 39412085; conditions: cited from earlier work
# relapsed/refractory pLGG = test system: relapsed/refractory pLGG; set-up: method as in PMID 39808502, PMID 37978284; conditions: cited from earlier work
# [5] = test system: aldehyde oxidase and cytochrome P450 (CYP) 2C8, CYP3A, CYP2C9, CYP2C19; set-up: method as in PMID 38967715, PMID 39412085; conditions: in vitro, minor contributions from CYP3A; cited from earlier work
# [6] = test system: CYP2C8, CYP2C9, CYP2C19, CYP3A, CYP1A2, CYP2B6; set-up: method as in PMID 38967715, PMID 39412085; conditions: at clinically relevant concentrations, cited from earlier work
# [7] = test system: breast cancer resistance protein; set-up: method as in PMID 38967715, PMID 39412085; conditions: at clinically relevant concentrations; cited from earlier work
# [8] = 20-280 mg every 2 days and 400-800 mg every week
compound,measurement,setting,value
"C[C@@H](NC(=O)c1ncnc(N)c1Cl)c1ncc(C(=O)Nc2cc(C(F)(F)F)c(Cl)cn2)s1 [tovorafenib, 6‐amino‐5‐chloro‐N‐[(1R)‐1‐[5‐[[[5chloro‐4‐(trifluoromethyl)‐2‐pyridinyl]amino]carbonyl]‐2‐thiazolyl]ethyl]‐4‐pyrimidinecarboxamide]",half-life,"[1]; human, plasma, oral, range over regimens, 100 and 300 mg, read-out: Mean t1/2 values from the 3 treatment regimens",62 to 89.5 h
same,AUC0‐last at 300 mg relative to 100 mg,[1]; single doses,~2.5 fold
same,Cmax at 300 mg relative to 100 mg,[1]; single doses,approximately 2.3 fold
same,Severity of all AEs,[2]; 100 mg dose regimens,mild
same,"Myalgia, events",[2]; 300 mg,10 events
same,"Nonserious musculoskeletal AEs, mild",[2]; 300 mg,5 participants
same,"Nonserious musculoskeletal AEs, moderate",[2]; 300 mg,3 participants
same,"Nonserious musculoskeletal AEs, severe",[2]; 300 mg,4 participants
same,Moderate AEs,[2]; 300 mg dose regimens,7
same,Participants with nonserious musculoskeletal AEs,"[2]; 300 mg, Period 1",12 participants
same,"Myalgia, participants reporting","[2]; 300 mg, [83.3%]",10 participants
same,TEAEs reported during Part 1,"[2]; Part 1, sip and spit of PfOS formulations, n = 12",no TEAEs
same,Serious AEs or AEs leading to study drug discontinuation,[2]; Part 2,no serious AEs or AEs leading to study drug discontinuation
same,TEAEs related to tovorafenib,"[2]; Part 2, all regimens",60
same,Total TEAEs,"[2]; Part 2, all regimens",71
same,Participants reporting TEAEs,"[2]; Part 2, all regimens, N = 12",12 participants
same,"Laboratory, vital sign, electrocardiogram, physical examination findings",[2]; either part of the study,no clinically significant abnormal
same,Dose proportionality of peak plasma concentration and exposure,[3]; [8],roughly dose‐proportional
same,half-life,[3]; [8],approximately 70 hours
same,Median tmax,[3]; after dosing,3 h
same,Mean t1/2,"[3]; patients, 600 mg, multiple administrations",approximately 70 hours
same,Tovorafenib share of total plasma radioactivity exposure,[4]; single 100-mg oral dose of [14C]-tovorafenib,78.7%
same,Dose recovered in the urine,[4]; single oral radiolabeled dose,27%
same,Dose recovered unchanged in the feces,[4]; single oral radiolabeled dose,8.6%
same,Dose recovered unchanged in the urine,[4]; single oral radiolabeled dose,0.2%
same,Total radiolabeled dose recovered in the feces,[4]; single oral radiolabeled dose,65%
same,Overall response rate,"relapsed/refractory pLGG; 76 evaluable patients, 420 mg/m^2 once weekly (600 mg maximum), independent radiology review, RAPNO low-grade glioma criteria",51%
same,Median duration of response,"relapsed/refractory pLGG; FIREFLY-1 arm 1, 420 mg/m^2 once weekly",13.8 months
same,Metabolizing enzymes,[5],primarily metabolized by aldehyde oxidase and cytochrome P450 (CYP) 2C8
same,Effect on CYP1A2 and CYP2B6,[6],induces
same,"Effect on CYP2C8, CYP2C9, CYP2C19, and CYP3A",[6]; in vitro,both inhibits and induces
same,Effect on breast cancer resistance protein,[7],inhibits
